Laboratory results from patent US20230263811A1, “APPLICATION OF C[…] TREATMENT OF CORONAVIRUS INFECTIONS” (ACADEMY OF MILITARY MEDICAL SCIENCES, priority 2020, published 2023).

Assays:
Assay type in all cases: cell-based
SARS-CoV-2 = assay: Reduction of viral nucleic acid load of Vero E6 cells infected by SARS-CoV-2 (qRT-PCR of supernatant); conditions: for Viral genome copy number (MOI = 0.05): infected supernatant, 48 h, vehicle 2215912896 ± 388319129
Vero E6 cells = assay: Cytotoxicity test of drug (CCK-8 kit); conditions: for Cell viability: Vero E6, 48 h
Description: (§1) The detection of the drug cytotoxicity was performed using CCK-8 kit (Beoytime). Specific steps were as follows:
(§2) 1) 1×10^4 Vero E6 (ATCC) cells were placed in a 96-well plate and incubated at 37° C. for 8 hours.
(§3) 2) The drug was diluted with DMSO to an appropriate concentration of mother liquor, and then diluted with MEM medium (purchased from Gibco, Catalog No. 10370021) containing 2% FBS (purchased from Gibco, Catalog No. 16000044) to the same concentration as that for the drug treatment. The original medium in the 96-well plate was discarded, 100 μL of drug-containing MEM medium was added to the cells, and three replicate wells were prepared for each concentration. Negative control (vehicle group, DMSO and medium were added to the cell wells, without adding drug) and blank control (DMSO and medium were added to the wells, without cells) were set up. After the drug was added, the cells were cultured at 37° C. for 48 hours.
(§4) 3) 20 μL of CCK-8 solution (Beoytime) was added to the well to be tested, mixed gently, without generating bubbles, and continuously incubated at 37° C. for 2 hours. OD450 was read on a microplate reader (purchased from Molecular Devices, Model: SpectraMax M5), and cell viability was calculated:
(§5) Cell activity (%)=(A(drug treatment group)−A(blank control))/(A(vehicle control)−A(blank control))=100%
(§6) wherein A was the reading of the microplate reader.

[1] = Cytotoxicity test of drug (CCK-8 kit); conditions: African green monkey, Vero E6 cells
Description: as §1, §2, §3, §4, §5, §6

In the case of `C=C(C)[C@@H]1CCC(C)=C[C@H]1c1c(O)cc(CCCCC)cc1O` [cannabidiol, (−)-2-[(3R,4R)-p-mentha-1,8-dien-3β-yl]-5-pentylresorcinol], the “Viral genome copy number (MOI = 0.05)” value (SARS-CoV-2; 0.04 μM) is reported as 1853011000 ± 279114748, the “Viral genome copy number (MOI = 0.05)” value (SARS-CoV-2; 0.12 μM) is reported as 1860569042 ± 365350110 and the “Viral genome copy number (MOI = 0.05)” value (SARS-CoV-2; 0.37 μM) is reported as 1224296104 ± 183149682. The “Viral genome copy number (MOI = 0.05)” value (SARS-CoV-2; 1.11 μM) was 877127896 ± 122398434, the “Viral genome copy number (MOI = 0.05)” value (SARS-CoV-2; 3.33 μM) was 668555500 ± 83251338 and the “Inhibition of viral RNA load on cells” value (SARS-CoV-2; 48 h after infection of vero E6 cells with SARS-CoV-2 (FIG. 1)) was “the inhibitory activity was dose-dependent”. The EC50 (SARS-CoV-2; Severe acute respiratory syndrome coronavirus 2, Vero C1008, Vero E6 cells, read-out: EC50 against SARS-CoV-2) was 620 nM, the “Inhibition of replication of the SARS-CoV-2 virus genome in the infected supernatant” value (SARS-CoV-2; concentrations of 10 μM, 3.3 μM, 1.1 μM and 0.37 μM) was “could effectively inhibit the replication” and the Cell viability (Vero E6 cells; 0.78 μM) was 73.45 ± 7.48%. It also gave a Cell viability (Vero E6 cells; 1.56 μM) of 74.22 ± 13.42%, a Cell viability (Vero E6 cells; 3.13 μM) of 58.45 ± 5.30% and a Cell viability (Vero E6 cells; 6.25 μM) of 60.07 ± 6.01%. The Cell viability (Vero E6 cells; 12.5 μM) was 50.01 ± 8.40%, the Cell viability (Vero E6 cells; 25 μM) was 38.39 ± 5.70% and the Cell viability (Vero E6 cells; 50 μM) was 22.85 ± 18.47%. For the same compound, the Cell viability (Vero E6 cells; 100 μM) was 8.87 ± 3.59%, the “Change of cell viability” value (Vero E6 cells; concentrations of 1.56 μM and 0.78 μM) was “did not change the cell viability” and the CC50 at 48 h [1] was 4100 nM.
